Test results: DBAASP
Values after ≈ are worked out from the molar mass of the structure shown. Values joined by “and” are separate entries in the source; they are usually repeats but may differ in a detail not shown here. Equal values may be shown once.

How the values were obtained:
Assay in all cases: ≥ marks a high value that may be exact or a test limit, other limits are often not marked, values filed in µg/mL are converted to µM
[1] = system: Candida albicans ATCC 2002
[2] = system: Escherichia coli ATCC 25922
[3] = system: Staphylococcus aureus ATCC 2592
[4] = system: Pseudomonas aeruginosa ATCC 9027
Bacillus subtilis 168 = system: Bacillus subtilis 168
Pseudomonas aeruginosa = system: Pseudomonas aeruginosa
Escherichia coli B = system: Escherichia coli B
Staphylococcus aureus = system: Staphylococcus aureus
Escherichia coli JW0013 = system: Escherichia coli JW0013
[5] = system: Salmonella enterica subsp. enterica serovar Typhimurium C77-31
[6] = system: Staphylococcus aureus ATCC 29213
[7] = system: Staphylococcus epidermidis ATCC 12228
Escherichia coli UB1005 = system: Escherichia coli UB1005
[8] = system: Enterococcus faecalis ATCC 29212
Bacillus subtilis = system: Bacillus subtilis
[9] = system: Staphylococcus aureus ATCC 25923
Acinetobacter baumannii = system: Acinetobacter baumannii
Escherichia coli = system: Escherichia coli

| MIC [1] | MIC [2] | MIC [3] | MIC (Pseudomonas aeruginosa) | MIC (Staphylococcus aureus) | Compound | other results |
| --- | --- | --- | --- | --- | --- | --- |
| 17.1 µM (≈ 25 µg/mL) | 20.5 µM (≈ 30 µg/mL) | 6.84 µM (≈ 9.99 µg/mL) | – | – | CC[C@H](C)[C@H](NC(=O)[C@@H]1CCCN1C(=O)[C@H](CCCN=C(N)N)NC(=O)[C@@H]1CCCN1C(=O)[C@@H](NC(=O)[C@@H]1CCCN1C(=O)[C@H](CC(C)C)NC(=O)[C@@H](N)Cc1ccccc1)[C@@H](C)CC)C(=O)N[C@@H](CC(C)C)C(=O)N[C@@H](CC(C)C)C(=O)NCC(=O)N[C@@H](CC(C)C)C(=O)N[C@@H](CC(C)C)C(N)=O [FLPIPRPILLGLL] | – |
| 2.61 µM (≈ 7.5 µg/mL) | 10.4 µM (≈ 30 µg/mL) | 1.29 µM (≈ 3.7 µg/mL) | – | – | CSCC[C@H](NC(=O)[C@@H](NC(=O)[C@H](CCCCN)NC(=O)[C@H](Cc1cnc[nH]1)NC(=O)[C@H](CC(C)C)NC(=O)CN)C(C)C)C(=O)N[C@@H](CCCN=C(N)N)C(=O)N[C@@H](CCC(=O)O)C(=O)N[C@H](C(=O)N[C@@H](CC(C)C)C(=O)NCC(=O)N[C@@H](Cc1ccc(O)cc1)C(=O)N[C@@H](CCC(=O)O)C(=O)N[C@@H](CCCN=C(N)N)C(=O)N[C@@H](CC(N)=O)C(=O)N[C@@H](CO)C(=O)N[C@@H](Cc1ccc(O)cc1)C(=O)N[C@@H](CCCCN)C(=O)N[C@@H](CCCCN)C(=O)N[C@@H](Cc1ccccc1)C(=O)N[C@@H](Cc1ccccc1)C(=O)N[C@@H](CC(C)C)C(=O)N[C@@H](CCCN=C(N)N)C(=O)O)C(C)C [GLHKVMREVLGYERNSYKKFFLR] | – |
| – | – | – | 26.3 µM (≈ 36.8 µg/mL) | 9.2 µM (≈ 12.9 µg/mL) | CC[C@H](C)[C@H](NC(=O)[C@H](CC(C)C)NC(=O)[C@H](CCCCN)NC(=O)CNC(=O)[C@H](CC(C)C)NC(=O)[C@@H](NC(=O)[C@H](CCCCN)NC(=O)[C@H](CO)NC(=O)[C@H](Cc1c[nH]c2ccccc12)NC(=O)[C@H](CCSC)NC(=O)CN)[C@@H](C)CC)C(=O)N[C@@H](CCCN=C(N)N)C(N)=O [GMWSKILGKLIR] | MIC (Bacillus subtilis 168): 0.9 µM (≈ 1.26 µg/mL); MIC (Escherichia coli B): 3.7 µM (≈ 5.18 µg/mL) |
| – | 2 µM (≈ 3.37 µg/mL) | – | 4 µM (≈ 6.74 µg/mL) | 2 µM (≈ 3.37 µg/mL) | CC[C@H](C)[C@H](NC(=O)[C@H](CCCCN)NC(=O)[C@H](Cc1c[nH]c2ccccc12)NC(=O)[C@H](CCCCN)NC(=O)[C@@H](NC(=O)[C@H](CCCCN)NC(=O)[C@H](Cc1c[nH]c2ccccc12)NC(=O)[C@H](CCCCN)NC(=O)[C@@H](NC(=O)[C@H](CCCCN)NC(=O)[C@@H](N)Cc1c[nH]c2ccccc12)[C@@H](C)CC)[C@@H](C)CC)C(=O)N[C@@H](CCCCN)C(N)=O [WKIKWKIKWKIK] | MIC [5]: 2 µM (≈ 3.37 µg/mL); MIC [9]: 2 µM (≈ 3.37 µg/mL); MIC [6]: 2 µM (≈ 3.37 µg/mL); MIC (Acinetobacter baumannii): 1.41 µM (≈ 2.38 µg/mL); MIC [7]: 2 µM (≈ 3.37 µg/mL); MIC (Escherichia coli UB1005): 2 µM (≈ 3.37 µg/mL); MIC (Escherichia coli): 2 µM (≈ 3.37 µg/mL) |

Second part, the molecule before the results:

| Compound | MIC [1] | MIC [2] | MIC [3] | MIC (Pseudomonas aeruginosa) | MIC (Staphylococcus aureus) | other results |
| --- | --- | --- | --- | --- | --- | --- |
| CC[C@H](C)[C@H](NC(=O)[C@H](CCCN=C(N)N)NC(=O)[C@@H](NC(=O)[C@@H]1CCCN1C(=O)[C@@H](NC(=O)[C@@H](NC(=O)[C@H](CCC(N)=O)NC(=O)[C@@H]1CCCN1C(=O)[C@@H](NC(=O)[C@@H](NC(=O)[C@H](Cc1cnc[nH]1)NC(=O)[C@@H]1CCCN1C(=O)[C@@H]1CCCN1C(=O)[C@@H](NC(=O)CNC(=O)[C@H](Cc1c[nH]c2ccccc12)NC(=O)[C@H](C)NC(=O)[C@H](CCCCN)NC(=O)[C@H](C)N)[C@@H](C)CC)C(C)C)[C@@H](C)CC)[C@@H](C)CC)C(C)C)C(C)C)C(=O)N[C@@H](CCCN=C(N)N)C(=O)N1CCC[C@H]1C(=O)N[C@@H](CC(C)C)C(=O)NCC(=O)NCC(=O)N[C@@H](CC(N)=O)C(=O)N[C@H](C(=O)O)C(C)C [AKAWGIPPHVIPQIVPVRIRPLGGNV] | 8.98 µM (≈ 25 µg/mL) | 8.98 µM (≈ 25 µg/mL) | 1.15 µM (≈ 3.2 µg/mL) | – | – | – |
| CC(C)C[C@H](NC(=O)[C@H](CC(C)C)NC(=O)[C@H](Cc1ccccc1)NC(=O)[C@@H]1CCCN1C(=O)[C@H](CC(C)C)NC(=O)[C@@H](N)Cc1ccccc1)C(=O)N[C@@H](CO)C(=O)N[C@@H](C)C(=O)N[C@@H](CC(C)C)C(=O)N1CCC[C@H]1C(=O)N[C@@H](CCCCN)C(=O)N[C@H](C(=O)N[C@@H](Cc1ccccc1)C(=O)N[C@H]1CSSC[C@@H](C(=O)O)NC(=O)[C@H](CCCCN)NC(=O)[C@H](CCCCN)NC(=O)[C@H](CO)NC(=O)[C@H](Cc2ccccc2)NC(=O)[C@H](Cc2ccccc2)NC1=O)C(C)C [FLPFLLSALPKVFCFFSKKC] | ≥ 43 µM | 16 µM (≈ 37.3 µg/mL) | 8 µM (≈ 18.7 µg/mL) | – | – | MIC [4]: 32 µM (≈ 74.7 µg/mL) |
| CC[C@H](C)[C@H](NC(=O)[C@H](CC(C)C)NC(=O)[C@@H]1CCCN1C(=O)CNC(=O)[C@H](CC(C)C)NC(=O)[C@@H](NC(=O)[C@H](CCCCN)NC(=O)[C@H](CO)NC(=O)[C@H](Cc1c[nH]c2ccccc12)NC(=O)[C@H](CCSC)NC(=O)CN)[C@@H](C)CC)C(=O)N[C@@H](CCCN=C(N)N)C(N)=O [GMWSKILGPLIR] | – | – | – | > 100 µM | > 100 µM | MIC (Bacillus subtilis 168): 3.6 µM (≈ 4.93 µg/mL); MIC (Escherichia coli B): 30 µM (≈ 41.1 µg/mL) |
| CC[C@H](C)[C@H](NC(=O)[C@H](CC(C)C)NC(=O)[C@H](Cc1cnc[nH]1)NC(=O)CNC(=O)[C@H](CC(C)C)NC(=O)[C@@H](NC(=O)[C@H](CCCCN)NC(=O)[C@H](CO)NC(=O)[C@H](Cc1c[nH]c2ccccc12)NC(=O)[C@@H](N)CCSC)[C@@H](C)CC)C(=O)N[C@@H](CCCN=C(N)N)C(N)=O [MWSKILGHLIR] | – | – | – | > 100 µM | 45 µM (≈ 60.9 µg/mL) | MIC (Bacillus subtilis 168): 5 µM (≈ 6.76 µg/mL); MIC (Escherichia coli B): ≥ 50 µM |
| CC[C@H](C)[C@H](NC(=O)[C@H](CCCN=C(N)N)NC(=O)[C@H](CCCN=C(N)N)NC(=O)[C@@H]1CCCN1C(=O)[C@@H]1CCCN1C(=O)[C@H](CCCN=C(N)N)NC(=O)[C@@H]1CCCN1C(=O)[C@H](CCCN=C(N)N)NC(=O)[C@@H]1CCCN1C(=O)[C@H](CC(C)C)NC(=O)[C@H](Cc1ccc(O)cc1)NC(=O)[C@@H]1CCCN1C(=O)[C@@H]1CCCN1C(=O)[C@H](CCCCN)NC(=O)[C@H](CC(=O)O)NC(=O)[C@@H]1CCCN1)C(=O)N[C@@H](Cc1ccc(O)cc1)C(=O)N[C@@H](CC(N)=O)C(=O)N[C@@H](CCCN=C(N)N)C(N)=O [PDKPPYLPRPRPPRRIYNR] | – | – | – | – | – | MIC (Escherichia coli JW0013): 2.01 µM (≈ 4.8 µg/mL) |
| CC[C@H](C)[C@H](NC(=O)[C@H](CCCN=C(N)N)NC(=O)[C@H](CCCN=C(N)N)NC(=O)[C@H](CC(C)C)NC(=O)[C@H](CCCN=C(N)N)NC(=O)[C@H](Cc1c[nH]c2ccccc12)NC(=O)[C@H](CCCN=C(N)N)NC(=O)[C@@H](NC(=O)[C@H](CCCN=C(N)N)NC(=O)[C@H](Cc1c[nH]c2ccccc12)NC(=O)[C@H](CCCN=C(N)N)NC(=O)[C@H](CC(C)C)NC(=O)[C@H](CCCN=C(N)N)NC(=O)[C@H](CCCN=C(N)N)NC(=O)[C@H](Cc1ccccc1)NC(=O)[C@@H](N)CCCN=C(N)N)[C@@H](C)O)C(N)=O [RFRRLRWRTRWRLRRI] | – | 4 µM and 8 µM | – | – | – | MIC [5]: 4 µM (≈ 9.53 µg/mL); MIC [6]: 4 µM and 8 µM; MIC [7]: 4 µM (≈ 9.53 µg/mL); MIC (Escherichia coli UB1005): 2 µM (≈ 4.77 µg/mL); MIC [8]: 2 µM (≈ 4.77 µg/mL) |
| CC[C@H](C)[C@H](NC(=O)[C@H](CCC(N)=O)NC(=O)[C@H](CCCCN)NC(=O)[C@H](Cc1c[nH]c2ccccc12)NC(=O)[C@H](CC(C)C)NC(=O)[C@H](CCC(N)=O)NC(=O)[C@@H]1CCCN1C(=O)[C@H](CC(C)C)NC(=O)[C@H](CCCCN)NC(=O)[C@H](C)NC(=O)[C@H](CCC(=O)O)NC(=O)[C@H](CCCCN)NC(=O)[C@@H](NC(=O)CNC(=O)[C@@H](NC(=O)[C@@H](NC(=O)[C@@H](NC(=O)[C@@H](N)CO)[C@@H](C)CC)[C@@H](C)CC)[C@@H](C)O)[C@@H](C)O)C(=O)N[C@@H](C)C(=O)N[C@H]1CSSC[C@@H](C(=O)O)NC(=O)[C@H]([C@@H](C)O)NC(=O)[C@H](CC(N)=O)NC(=O)[C@H](Cc2ccc(O)cc2)NC(=O)[C@H](CC(C)C)NC(=O)[C@H](CCCN=C(N)N)NC1=O [SIITGTKEAKLPQLWKQIACRLYNTC] | 10.1 µM (≈ 30 µg/mL) | 20.1 µM (≈ 60 µg/mL) | 5.03 µM (≈ 15 µg/mL) | – | – | MIC (Bacillus subtilis): ≥ 40.3 µM |
